# Experimental data as given in patent publication US6737383B1, “Herbicidal oxadiazolidines” (priority 1999, dated 2004).
# Assays:
# [1] = test system: rice; assay: Test B flood test rice; assay type: in vivo, Oryza sativa
# In short: (§1)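 Read-out is a visual response score from 0 (no effect) to 10 (complete control), assigned by comparison with untreated controls. Treatment was applied at the 2-leaf stage, and plants stayed in the greenhouse for twelve to sixteen days before scoring.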
# [2] = test system: blackgrass; assay: Test B pre/postemergence blackgrass; assay type: in vivo, Alopecurus myosuroides; conditions: for Blackgrass plant response rating: scale of 0 to 10 where 0 is no effect and 10 is complete control
# In short: (§2)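 Herbicidal effect was estimated by eye on a ten-point control scale after plants spent twelve to sixteen days in a greenhouse following soil or foliar treatment. Foliar sprays targeted plants at one to four leaves; all doses were formulated in a non-phytotoxic solvent with surfactant.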
# [3] = test system: purple nutsedge; assay: Test B pre/postemergence purple nutsedge; assay type: in vivo, Cyperus rotundus; conditions: for Nutsedge plant response rating: scale of 0 to 10 where 0 is no effect and 10 is complete control
# In short: as §2
# [4] = test system: surinam grass; assay: Test B pre/postemergence surinam grass; assay type: in vivo, Brachiaria decumbens; conditions: for B. signalgrass plant response rating: scale of 0 to 10 where 0 is no effect and 10 is complete control
# In short: as §2
# [5] = test system: smallflower flatsedge; assay: Test B flood test smallflower flatsedge; assay type: in vivo, Cyperus difformis
# In short: as §1
# [6] = test system: corn; assay: Test B pre/postemergence corn; assay type: in vivo, Zea mays; conditions: for Corn plant response rating: scale of 0 to 10 where 0 is no effect and 10 is complete control
# In short: as §2
# [7] = test system: wild oat; assay: Test B pre/postemergence wild oat; assay type: in vivo, Avena fatua; conditions: for Wild oats plant response rating: scale of 0 to 10 where 0 is no effect and 10 is complete control
# In short: as §2
# [8] = test system: crabgrass; assay: Test B pre/postemergence crabgrass; assay type: in vivo, Digitaria sanguinalis; conditions: for Crabgrass plant response rating: scale of 0 to 10 where 0 is no effect and 10 is complete control
# In short: as §2
# [9] = test system: pigweed; assay: Test B pre/postemergence pigweed; assay type: in vivo, Amaranthus retroflexus; conditions: for Redroot pigweed plant response rating: scale of 0 to 10 where 0 is no effect and 10 is complete control
# In short: as §2
# [10] = test system: giant foxtail; assay: Test B pre/postemergence giant foxtail; assay type: in vivo, Setaria faberii; conditions: for Giant foxtail plant response rating: scale of 0 to 10 where 0 is no effect and 10 is complete control
# In short: as §2
# [11] = test system: cocklebur; assay: Test B pre/postemergence cocklebur; assay type: in vivo, Xanthium strumarium; conditions: for Cocklebur plant response rating: scale of 0 to 10 where 0 is no effect and 10 is complete control
# In short: as §2
# [12] = test system: soybean; assay: Test B pre/postemergence soybean; assay type: in vivo, Glycine max; conditions: for Soybean plant response rating: scale of 0 to 10 where 0 is no effect and 10 is complete control
# In short: as §2
# [13] = test system: bamyardgrass; assay: Test B flood test barnyardgrass; assay type: in vivo, Echinochloa crus-galli
# In short: as §1
# [14] = test system: velvetleaf; assay: Test B pre/postemergence velvetleaf; assay type: in vivo, Abutilon theophrasti; conditions: for Velvetleaf plant response rating: scale of 0 to 10 where 0 is no effect and 10 is complete control
# In short: as §2
# [15] = test system: sugar beet; assay: Test B pre/postemergence sugar beet; assay type: in vivo, Beta vulgaris; conditions: for Sugarbeets plant response rating: scale of 0 to 10 where 0 is no effect and 10 is complete control
# In short: as §2
# [16] = test system: bedstraw; assay: Test B pre/postemergence bedstraw; assay type: in vivo, Galium aparine; conditions: Postemergence
# In short: as §2
# [17] = Rate 62 g/ha, flood test species, Pre-emergence, visual evaluation after twelve to sixteen days
# [18] = Rate 125 g/ha, under heading Pre-emergence, flood test species, visual evaluation after twelve to sixteen days
# [19] = Rate 250 g/ha, Pre-emergence, flood-test species, scale 0 to 10, 0 is no effect, 10 is complete control
# [20] = Rate 500 g/ha, Pre-emergence, flood test species, scale 0 to 10 (0 no effect, 10 complete control)
# [21] = Postemergence, Rate 125 g/ha, scale 0 to 10, 0 is no effect, 10 is complete control
# [22] = Postemergence, Rate 250 g/ha, scale 0 to 10, 0 is no effect, 10 is complete control
# [23] = Preemergence, Rate 62 g/ha, scale 0 to 10 (0 no effect, 10 complete control)
# [24] = Rate 500 g/ha, Postemergence, scale 0 to 10, 0 no effect, 10 complete control
smiles,measurement,setting,value
CC(C)N(C(=O)n1oc(=O)n(N2C(C)CCCC2C)c1=O)c1ccc(F)cc1 (stereo not shown) [Compound 382],"Plant response rating, Rice (0 to 10 scale, 0 is no effect, 10 is complete control)",[1]; [17],0
same,"Rice plant response rating (0 to 10 scale, 0 is no effect, 10 is complete control)",[1]; [18],0
same,Rice plant response rating,[1]; [19],0
same,Rice plant response rating,[1]; [20],0
same,"Plant response rating, Blackgrass",[2]; [21],0
same,"Plant response rating, Blackgrass",[2]; [22],2
same,"Plant response rating, Blackgrass",[2]; [23],0
same,Blackgrass plant response rating (0 to 10 scale),"[2]; Preemergence, Rate 125 g/ha",1
same,Blackgrass plant response rating,"[2]; Preemergence, Rate 250 g/ha",3
same,Blackgrass plant response rating,"[2]; Preemergence, Rate 500 g/ha",7
same,Blackgrass plant response rating,"[2]; Rate 62 g/ha, Postemergence",0
same,"Plant response rating, Blackgrass",[2]; [24],2
same,"Plant response rating, Nutsedge",[3]; [21],0
same,"Plant response rating, Nutsedge",[3]; [22],0
same,"Plant response rating, Nutsedge",[3]; [23],0
same,Nutsedge plant response rating (0 to 10 scale),"[3]; Preemergence, Rate 125 g/ha",0
same,Nutsedge plant response rating,"[3]; Preemergence, Rate 250 g/ha",0
same,Nutsedge plant response rating,"[3]; Preemergence, Rate 500 g/ha",0
same,Nutsedge plant response rating,"[3]; Rate 62 g/ha, Postemergence",0
same,"Plant response rating, Nutsedge",[3]; [24],0
same,"Plant response rating, B. signalgrass",[4]; [21],0
same,"Plant response rating, B. signalgrass",[4]; [22],0
same,"Plant response rating, B. signalgrass",[4]; [23],0
same,"B. signalgrass plant response rating (0 to 10 scale, 0 is no effect, 10 is complete control)","[4]; Preemergence, Rate 125 g/ha",0
same,B. signalgrass plant response rating,"[4]; Preemergence, Rate 250 g/ha",2
same,B. signalgrass plant response rating,"[4]; Preemergence, Rate 500 g/ha",6
same,B. signalgrass plant response rating,"[4]; Rate 62 g/ha, Postemergence",0
same,"Plant response rating, B. signalgrass",[4]; [24],0
same,"Plant response rating, S. Flatsedge (0 to 10 scale, 0 is no effect, 10 is complete control)",[5]; [17],0
same,"S. Flatsedge plant response rating (0 to 10 scale, 0 is no effect, 10 is complete control)",[5]; [18],0
same,S. Flatsedge plant response rating,[5]; [19],0
same,S. Flatsedge plant response rating,[5]; [20],0
same,"Plant response rating, Corn",[6]; [21],0
same,"Plant response rating, Corn",[6]; [22],0
same,"Plant response rating, Corn",[6]; [23],0
same,Corn plant response rating (0 to 10 scale),"[6]; Preemergence, Rate 125 g/ha",0
same,Corn plant response rating,"[6]; Preemergence, Rate 250 g/ha",0
same,Corn plant response rating,"[6]; Preemergence, Rate 500 g/ha",2
same,Corn plant response rating,"[6]; Rate 62 g/ha, Postemergence",0
same,"Plant response rating, Corn",[6]; [24],0
same,"Plant response rating, Wild oats",[7]; [21],0
same,"Plant response rating, Wild oats",[7]; [22],0
same,"Plant response rating, Wild oats",[7]; [23],0
same,Wild oats plant response rating (0 to 10 scale),"[7]; Preemergence, Rate 125 g/ha",0
same,Wild oats plant response rating,"[7]; Preemergence, Rate 250 g/ha",0
same,Wild oats plant response rating,"[7]; Preemergence, Rate 500 g/ha",4
same,Wild oats plant response rating,"[7]; Rate 62 g/ha, Postemergence",0
same,"Plant response rating, Wild oats",[7]; [24],0
same,"Plant response rating, Crabgrass",[8]; [21],0
same,"Plant response rating, Crabgrass",[8]; [22],0
same,"Plant response rating, Crabgrass",[8]; [23],6
same,Crabgrass plant response rating (0 to 10 scale),"[8]; Preemergence, Rate 125 g/ha",7
same,Crabgrass plant response rating,"[8]; Preemergence, Rate 250 g/ha",9
same,Crabgrass plant response rating,"[8]; Preemergence, Rate 500 g/ha",10
same,Crabgrass plant response rating,"[8]; Rate 62 g/ha, Postemergence",0
same,"Plant response rating, Crabgrass",[8]; [24],1
same,"Plant response rating, Redroot pigweed",[9]; [21],0
same,"Plant response rating, Redroot pigweed",[9]; [22],0
same,"Plant response rating, Redroot pigweed",[9]; [23],0
same,Redroot pigweed plant response rating (0 to 10 scale),"[9]; Preemergence, Rate 125 g/ha",0
same,Redroot pigweed plant response rating,"[9]; Preemergence, Rate 250 g/ha",0
same,Redroot pigweed plant response rating,"[9]; Preemergence, Rate 500 g/ha",0
same,Redroot pigweed plant response rating,"[9]; Rate 62 g/ha, Postemergence",0
same,"Plant response rating, Redroot pigweed",[9]; [24],0
same,"Plant response rating, Giant foxtail",[10]; [21],3
same,"Plant response rating, Giant foxtail",[10]; [22],3
same,"Plant response rating, Giant foxtail",[10]; [23],9
same,Giant foxtail plant response rating (0 to 10 scale),"[10]; Preemergence, Rate 125 g/ha",9
same,Giant foxtail plant response rating,"[10]; Preemergence, Rate 250 g/ha",9
same,Giant foxtail plant response rating,"[10]; Preemergence, Rate 500 g/ha",10
same,Giant foxtail plant response rating,"[10]; Rate 62 g/ha, Postemergence",0
same,"Plant response rating, Giant foxtail",[10]; [24],4
same,"Plant response rating, Cocklebur",[11]; [21],0
same,"Plant response rating, Cocklebur",[11]; [22],0
same,"Plant response rating, Cocklebur",[11]; [23],0
same,Cocklebur plant response rating (0 to 10 scale),"[11]; Preemergence, Rate 125 g/ha",0
same,Cocklebur plant response rating,"[11]; Preemergence, Rate 250 g/ha",0
same,Cocklebur plant response rating,"[11]; Rate 62 g/ha, Postemergence",0
same,"Plant response rating, Cocklebur",[11]; [24],0
same,"Plant response rating, Soybean",[12]; [21],3
same,"Plant response rating, Soybean",[12]; [22],4
same,"Plant response rating, Soybean",[12]; [23],0
same,Soybean plant response rating (0 to 10 scale),"[12]; Preemergence, Rate 125 g/ha",0
same,Soybean plant response rating,"[12]; Preemergence, Rate 250 g/ha",0
same,Soybean plant response rating,"[12]; Preemergence, Rate 500 g/ha",0
same,Soybean plant response rating,"[12]; Rate 62 g/ha, Postemergence",1
same,"Plant response rating, Soybean",[12]; [24],5
same,"Plant response rating, Barnyardgrass (0 to 10 scale, 0 is no effect, 10 is complete control)",[13]; [17],0
same,"Barnyardgrass plant response rating (0 to 10 scale, 0 is no effect, 10 is complete control)",[13]; [18],0
same,Barnyardgrass plant response rating,[13]; [19],0
same,Barnyardgrass plant response rating,[13]; [20],0
same,"Plant response rating, Velvetleaf",[14]; [21],0
same,"Plant response rating, Velvetleaf",[14]; [22],0
same,"Plant response rating, Velvetleaf",[14]; [23],0
same,Velvetleaf plant response rating (0 to 10 scale),"[14]; Preemergence, Rate 125 g/ha",0
same,Velvetleaf plant response rating,"[14]; Preemergence, Rate 250 g/ha",0
same,Velvetleaf plant response rating,"[14]; Preemergence, Rate 500 g/ha",0
same,Velvetleaf plant response rating,"[14]; Rate 62 g/ha, Postemergence",0
same,"Plant response rating, Velvetleaf",[14]; [24],0
same,"Plant response rating, Sugarbeets",[15]; [21],0
same,"Plant response rating, Sugarbeets",[15]; [22],0
same,"Plant response rating, Sugarbeets",[15]; [23],0
same,Sugarbeets plant response rating (0 to 10 scale),"[15]; Preemergence, Rate 125 g/ha",0
same,Sugarbeets plant response rating,"[15]; Preemergence, Rate 250 g/ha",0
same,Sugarbeets plant response rating,"[15]; Preemergence, Rate 500 g/ha",0
same,Sugarbeets plant response rating,"[15]; Rate 62 g/ha, Postemergence",0
same,"Plant response rating, Sugarbeets",[15]; [24],0
same,"Plant response rating, Bedstraw","[16]; Rate 250 g/ha, scale 0 to 10, 0 is no effect, 10 is complete control",4
same,"Plant response rating, Bedstraw","[16]; Rate 500 g/ha, scale 0 to 10, 0 no effect, 10 complete control",4
